Results as given in ChEMBL document CHEMBL1201862, “PubChem BioAssay data set” (2004).
The source made the active and inactive calls.

Experiments:
Cytochrome P450 3A4 = Cytochrome P450 3A4 (Homo sapiens, UniProt P08684); conditions: Potency;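 note: confirmatory qHTS run detecting inhibitors and substrates of CYP3A4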
[1] = molecular target: T1, Microphthalmia-associated transcription factor (Homo sapiens, UniProt O75030); assay: TRPM1 promoter luciferase signal decrease, dose response, MITF inhibitor project, cell-based, SK-MEL-5, cherry-picked, set 3 (AID 493073); format: functional
T1 sequence (O75030 whole entry): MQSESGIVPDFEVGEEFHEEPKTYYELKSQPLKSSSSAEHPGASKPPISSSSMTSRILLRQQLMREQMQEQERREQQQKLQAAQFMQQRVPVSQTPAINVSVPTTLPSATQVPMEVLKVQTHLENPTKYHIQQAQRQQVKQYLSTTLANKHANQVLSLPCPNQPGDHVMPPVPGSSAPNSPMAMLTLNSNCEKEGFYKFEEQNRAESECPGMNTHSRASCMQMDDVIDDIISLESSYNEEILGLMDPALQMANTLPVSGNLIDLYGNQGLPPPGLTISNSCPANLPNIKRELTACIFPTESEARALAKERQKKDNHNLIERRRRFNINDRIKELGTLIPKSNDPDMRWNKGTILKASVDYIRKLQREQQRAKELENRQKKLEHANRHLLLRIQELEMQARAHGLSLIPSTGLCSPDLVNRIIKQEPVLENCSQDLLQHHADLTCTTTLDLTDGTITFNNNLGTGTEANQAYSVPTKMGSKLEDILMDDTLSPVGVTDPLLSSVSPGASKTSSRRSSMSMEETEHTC

Genome polyprotein = Genome polyprotein (dengue virus type 2, UniProt P29990); assay: Dengue-2 NS5 methyltransferase inhibitors, primary screen, biochemical, confirmation dose response (AID 588689); format: functional
Chain of Genome polyprotein (P29990 2492-3391 limits assumed): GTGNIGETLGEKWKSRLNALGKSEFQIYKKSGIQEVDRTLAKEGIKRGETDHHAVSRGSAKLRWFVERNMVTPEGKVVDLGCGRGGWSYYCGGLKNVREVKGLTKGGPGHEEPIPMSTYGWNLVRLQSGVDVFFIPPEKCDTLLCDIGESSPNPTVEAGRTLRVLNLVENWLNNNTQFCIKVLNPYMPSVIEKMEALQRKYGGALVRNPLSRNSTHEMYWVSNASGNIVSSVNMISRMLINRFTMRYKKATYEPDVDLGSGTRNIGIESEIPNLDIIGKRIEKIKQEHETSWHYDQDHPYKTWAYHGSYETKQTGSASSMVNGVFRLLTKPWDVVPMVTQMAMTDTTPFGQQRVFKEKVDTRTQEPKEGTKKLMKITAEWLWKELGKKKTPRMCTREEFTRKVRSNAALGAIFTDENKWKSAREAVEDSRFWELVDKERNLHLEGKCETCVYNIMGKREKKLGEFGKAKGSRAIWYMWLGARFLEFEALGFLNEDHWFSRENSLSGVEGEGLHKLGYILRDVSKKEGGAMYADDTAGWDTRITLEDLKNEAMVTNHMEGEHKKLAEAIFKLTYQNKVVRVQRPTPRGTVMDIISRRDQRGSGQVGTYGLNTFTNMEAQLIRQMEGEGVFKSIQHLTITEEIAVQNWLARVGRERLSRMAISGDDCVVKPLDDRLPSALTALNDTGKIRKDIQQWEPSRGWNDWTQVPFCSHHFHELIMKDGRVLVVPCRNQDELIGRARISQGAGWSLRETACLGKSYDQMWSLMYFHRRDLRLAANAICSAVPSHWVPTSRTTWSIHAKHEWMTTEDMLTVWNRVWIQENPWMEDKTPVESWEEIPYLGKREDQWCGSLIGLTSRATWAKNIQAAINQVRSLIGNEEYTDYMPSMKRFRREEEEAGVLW

[2] = molecular target: Heat shock protein HSP 90-alpha (Homo sapiens, UniProt P07900); format: functional, organism-based
[3] = inhibitors of SNCA 5'UTR-driven reporter translation, confirmation, H4 neuroglioma cells, luminescence (AID 1988); format: functional, cell-based
[4] = NIH-3T3 fibroblast cytotoxicity, dose response, cytotoxicity control, cell-based, fluorescence, Alamar Blue, secondary assay (AID 2327); format: functional;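 note: NIH-3T3 mouse fibroblasts cultured with fluconazole at 8 µg/mL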
BJ [5] = assay: cells; format: functional, cell-based; conditions: Homo sapiens
BJ [6] = assay: cytotoxicity toward BJ-TERT fibroblasts, dose response, cell-based, RAS-independent, luminescence (AID 1933); format: functional; conditions: Homo sapiens
[7] = C. albicans growth with fluconazole, confirmation, fluorescence, retest (AID 2467); format: functional, cell-based
[8] = Luminescence Cell-Based Dose Response HTS to Identify Inhibitors of 5'UTR Stem-Loop Driven Prion Protein mRNA Translation in H4 Neuroglioblastoma Cells. [Related pubchem assays: 1827 (Project Summary), 1813 (Primary HTS)]; format: functional
Nonstructural protein 1 = Nonstructural protein 1 (Influenza A virus, UniProt Q194T2); format: functional, Influenza A virus (A/California/07/2009(H1N1))
Chain of Nonstructural protein 1 (Q194T2 whole entry): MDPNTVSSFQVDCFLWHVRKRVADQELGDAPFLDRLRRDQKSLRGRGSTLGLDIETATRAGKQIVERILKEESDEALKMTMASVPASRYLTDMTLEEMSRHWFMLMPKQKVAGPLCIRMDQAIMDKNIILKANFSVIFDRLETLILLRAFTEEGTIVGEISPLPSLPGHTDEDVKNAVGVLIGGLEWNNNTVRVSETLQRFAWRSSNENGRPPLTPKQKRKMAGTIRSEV

[9] = cytotoxicity toward DRD oncogenic fibroblasts, dose response, cell-based, non-viral oncogenic, luminescence (AID 1934); format: functional; conditions: Homo sapiens
BJ [10] = assay: cytotoxicity toward BJ-TERT-LT-ST fibroblasts, dose response, cell-based, RAS-independent, luminescence (AID 1935); format: functional; conditions: Homo sapiens;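 note: BJ fibroblasts immortalized with TERT plus LT and ST oncogenes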
[11] = inhibitors of firefly luciferase expression or activity, dose response, H4 neuroglioma cells, luminescence (AID 1990); format: functional, cell-based
INS1 = assay: beta cell apoptosis inhibitors, cytokine rescue, dose response, luminescence, retest (AID 449756); format: functional, cell-based; conditions: Rattus norvegicus;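 note: cell death triggered by IL-1 beta plus TNF-alpha plus IFN-gamma mixture; protective hits raise ATP signal compared with cytokine alone wells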
[12] = Shn3 3'UTR reporter inhibitors, dose response, cell-based, Clone20 osteoblasts, firefly luciferase, cherry-picked (AID 624132); format: functional;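 note: firefly luciferase luminescence from reporter carrying the Shn3 3'UTR in osteoblasts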
[13] = HepG2 cell cytotoxicity, dose response, cytotoxicity control for Shn3 inhibitor project, CellTiter-Glo, cherry-picked (AID 624134); format: functional, cell-based
cells [14] = format: functional, cell-based
[15] = control 3'UTR Renilla luciferase suppression, dose response, counter-screen for Shn3 inhibitor project, cell-based, Clone20-Shn3RL, cherry-picked (AID 624133); format: functional
cells [16] = format: functional, cell-based; remark: listed apart in the source
[17] = molecular target: T2, Short transient receptor potential channel 4 (Mus musculus, UniProt Q9QUQ5); assay: mouse TRPC4 channel inhibitors, dose response, cell-based, HEK293 TRPC4/mu-opioid, Fluo-4 calcium (AID 434942); format: functional;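 note: potency of inhibitors blocking the TRPC4 calcium response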
T2 sequence (Q9QUQ5 whole entry): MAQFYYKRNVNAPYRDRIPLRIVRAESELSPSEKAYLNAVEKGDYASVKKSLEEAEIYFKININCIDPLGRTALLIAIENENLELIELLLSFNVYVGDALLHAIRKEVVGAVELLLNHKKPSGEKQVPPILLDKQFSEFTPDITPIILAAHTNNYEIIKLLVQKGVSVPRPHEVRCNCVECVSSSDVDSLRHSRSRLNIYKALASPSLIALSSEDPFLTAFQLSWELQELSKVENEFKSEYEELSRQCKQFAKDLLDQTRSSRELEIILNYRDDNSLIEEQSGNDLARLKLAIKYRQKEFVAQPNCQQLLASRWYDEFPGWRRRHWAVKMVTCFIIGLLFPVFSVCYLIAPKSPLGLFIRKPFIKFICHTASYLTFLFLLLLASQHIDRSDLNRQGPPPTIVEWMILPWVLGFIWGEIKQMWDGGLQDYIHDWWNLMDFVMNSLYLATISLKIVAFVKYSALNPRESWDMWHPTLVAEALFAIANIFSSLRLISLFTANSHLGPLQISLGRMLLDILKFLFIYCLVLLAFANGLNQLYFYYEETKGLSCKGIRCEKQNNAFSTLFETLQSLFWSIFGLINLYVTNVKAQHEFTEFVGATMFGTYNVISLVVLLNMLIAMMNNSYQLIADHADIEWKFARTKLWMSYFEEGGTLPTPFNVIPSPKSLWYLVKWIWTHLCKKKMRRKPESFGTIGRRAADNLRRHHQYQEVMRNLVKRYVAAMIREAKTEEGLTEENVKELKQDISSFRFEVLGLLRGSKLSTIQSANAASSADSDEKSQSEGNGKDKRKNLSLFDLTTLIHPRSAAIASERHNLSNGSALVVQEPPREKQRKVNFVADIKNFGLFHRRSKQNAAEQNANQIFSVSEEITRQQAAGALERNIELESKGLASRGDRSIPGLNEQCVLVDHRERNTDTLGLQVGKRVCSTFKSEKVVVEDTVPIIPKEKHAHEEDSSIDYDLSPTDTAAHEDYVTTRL

[18] = intracellular Trypanosoma cruzi inhibitors in host cells – cell-based, plate reader, cherry-pick samples, set 3, dose response (AID 651818); format: functional;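 note: compounds incubated with infected cells for about four days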

Chain of Cytochrome P450 3A4 (P08684 whole entry): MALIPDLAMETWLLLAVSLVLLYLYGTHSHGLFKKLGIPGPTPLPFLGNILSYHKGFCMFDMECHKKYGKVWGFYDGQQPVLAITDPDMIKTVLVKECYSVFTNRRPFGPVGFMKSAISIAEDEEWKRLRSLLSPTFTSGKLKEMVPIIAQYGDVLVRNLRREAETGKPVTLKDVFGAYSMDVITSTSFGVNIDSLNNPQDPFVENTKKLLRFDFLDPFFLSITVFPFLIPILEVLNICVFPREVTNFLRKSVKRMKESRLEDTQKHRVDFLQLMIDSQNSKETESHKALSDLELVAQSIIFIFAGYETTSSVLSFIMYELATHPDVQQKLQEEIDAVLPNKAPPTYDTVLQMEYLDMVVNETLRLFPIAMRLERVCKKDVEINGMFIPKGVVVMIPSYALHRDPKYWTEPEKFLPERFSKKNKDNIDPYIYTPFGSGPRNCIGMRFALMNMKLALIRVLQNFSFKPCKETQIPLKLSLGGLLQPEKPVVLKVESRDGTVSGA

In the case of `CC(=O)N1[C@H](C)C=C[C@]1(Cc1ccccc1)C(=O)NCc1ccccn1`, the AC50 (Cytochrome P450 3A4) is reported as 12.6 µM (inconclusive).

In the case of `CCCCNC(=O)Nc1ccc(C2SCCS2)cc1`, the AC50 [1] is reported as 35.3 µM (active).

In the case of `COc1cccc(/C=C2/C(=O)NN(c3ccc(F)cc3)C2=O)c1`, the IC50 (Genome polyprotein) is reported as 38.1 µM (active).

In the case of `O=C1[C@@H]2C(c3cccnc3)=NO[C@@H]2C(=O)N1c1ccc(Br)cc1`, the AC50 [2] is reported as 5.67 µM (active).

With `O=C(NC(=S)NNC(=O)c1cnccn1)c1ccc(Cl)cc1` the EC50 [3] was 9.3 µM (active), the EC50 [4] was 5.78 µM (active) and the EC50 (BJ [5]) was > 150 µM (not active). The EC50 (BJ [6]) was 22.8 µM (active), the EC50 [7] was 1.69 µM (active) and the EC50 [8] was 9.78 µM (active). For the same compound, the IC50 (Nonstructural protein 1) was 3.01 µM (active), the EC50 [9] was 25.5 µM (active) and the EC50 (BJ [10]) was > 150 µM (not active). The EC50 [11] was 11.9 µM (active).

In the case of `Oc1c(C(Nc2cccc(C(F)(F)F)c2)c2ccncc2)ccc2cccnc12` (configuration not stated), the EC50 [3] is reported as 9.42 µM (active), the EC50 [4] is reported as 18.3 µM (active) and the EC50 [7] is reported as 3.42 µM (active). For the same compound, the EC50 [8] was 15.3 µM (active), the IC50 (Nonstructural protein 1) was 8.76 µM (active) and the AC50 (INS1) was 3.82 µM (active). The AC50 [12] was 5.8 µM (active), the AC50 [13] was 7.21 µM (active) and the EC50 (cells [14]) was > 350 µM (not active). The AC50 [2] was 6.48 µM (active), the EC50 [11] was 11.9 µM (active) and the AC50 [15] was 6.9 µM (active). The EC50 (cells [16]) was 9.32 µM (active).

With `CC(C)c1nc(CNC(=O)CC2C(=O)NCCN2Cc2ccc(F)cc2Cl)cs1` (configuration not stated) the EC50 [17] was 1.88 µM (active).

For `COc1cccc(NC(=O)CCC(=O)N2CC(C)Oc3ccc(C)cc32)c1` (configuration not stated), the EC50 [17] was 0.531 µM (active).

With `COC(=O)[C@@H]1C[C@@]2(O)[C@@H](O)[C@@H](O)[C@@H](O)C[C@H]2N1Cc1cc(F)ccc1F` the AC50 (Cytochrome P450 3A4) was 25.1 µM (inconclusive).

In the case of `CCC1C=C(c2ccccc2)C=CN=C1N(CC)CC` (configuration not stated), the EC50 [17] is reported as 4.22 µM (active).

With `O=C1c2cc(Cl)ccc2-c2c(O)cc(Cl)cc21` the AC50 [2] was 2.08 µM (active).

In the case of `C[C@H](CO)N1C[C@H](C)[C@@H](CN(C)Cc2ccc(Oc3ccccc3)cc2)Oc2c(NC(=O)Nc3ccccc3)cccc2C1=O`, the AC50 [18] is reported as 2.17 µM (active).

With `C[C@@H]1CN([C@H](C)CO)C(=O)c2cccc(NC(=O)Nc3ccc(C(F)(F)F)cc3)c2O[C@@H]1CN(C)Cc1ccc2c(c1)OCO2` the AC50 [18] was 2.54 µM (active).

With `C[C@H]1CN([C@@H](C)CO)C(=O)c2cc(NC(=O)Nc3cccc4ccccc34)ccc2O[C@@H]1CN(C)Cc1ccc(Cl)c(Cl)c1` the AC50 [18] was 3.43 µM (active).

With `C[C@H]1CN([C@@H](C)CO)C(=O)Cc2cc(NC(=O)Nc3ccccc3)ccc2O[C@H]1CN(C)Cc1ccc(C(=O)Nc2ccccc2N)cc1` the AC50 [18] was 2.93 µM (active).

For `C[C@H](CO)N1C[C@H](C)[C@H](CN(C)C(=O)Nc2ccc(C(F)(F)F)cc2)Oc2ccc(NC(=O)Nc3ccc(C(F)(F)F)cc3)cc2C1=O`, the AC50 [18] was 4.23 µM (active).
